Consider one compound from ChEMBL document CHEMBL1667780, “Identification of a novel small molecule targeting UQCRB of mitochondrial complex III and its anti-angiogenic activity” (Bioorg Med Chem Lett, 2011).

Assay [1] concerns the target T1, Cytochrome b-c1 complex subunit 7 (Homo sapiens) (UniProt P14927).
T1 sequence (whole entry): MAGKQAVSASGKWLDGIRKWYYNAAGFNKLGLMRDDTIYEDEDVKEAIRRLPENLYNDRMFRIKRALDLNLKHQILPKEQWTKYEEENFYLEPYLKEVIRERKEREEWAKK
As to the kind of experiment: Binding affinity to human UQCRB at 25 uM by surface plasmon resonance assay. In general terms: In SPR one partner is held on a chip, and binding of the other changes the refractive index at the surface.

Assay [2] has as its target T1, Cytochrome b-c1 complex subunit 7 (Homo sapiens). Briefly: Binding affinity to UQCRB in HUVEC at 30 uM after 24 hrs by ter-caumarin competitive binding assay. The format is cell-based.

Molecules are shown by their SMILES. Calls of active or inactive are those of the source. The rule behind the calls is not given here.

For the compound `C/C1=C\C[C@]2(C)C(=O)C(O)=C([C@H](C)CO)[C@H]2C/C=C(\C)[C@@H](O)CC/C(C)=C/CC1`, the outcome in assay [1] and in assay [2] was Active.
